In patent US8883745B2, “C—glycolipids with enhanced Th-1 profile” (New York University, priority 2006, dated 2014):

Columns and labels:
Assay type in all cases: in vivo
IFN-γ [1] = experiment: IFN-γ levels in sera upon i.v. glycolipid administration to BALB/c mice (ELISA); set-up: IFN-γ levels, test 1 / IFN-γ levels, test 2 / IFN-γ levels, average / IFN-γ levels, Total: unit not given here; conditions: for IFN-γ/IL-4 (BALB/c): ratio calculated from Tables 1-6; for IFN-γ/IL-4 (BALB/c) / IFN-γ levels, average / IFN-γ levels, test 1 / IFN-γ levels, test 2 / IFN-γ levels, Total: BALB/c; for IFN-γ levels, average / IFN-γ levels, test 1 / IFN-γ levels, test 2 / IFN-γ levels, Total: serum; for IFN-γ levels, Total: total over hours 0-72
Procedure: (§1) Five- to six-week-old female C57BL/6 mice and BALB/c mice were purchased from Taconic. Each glycolipid was stored at 1 mg/ml in 100% DMSO. Mice were injected intravenously with 1 μg of each glyocolipid diluted in 200 μL sterile phosphate buffered saline (PBS). At indicated time points, sera were collected from each animal, and concentrations of IFN-γ, IL-4, and IL-12 in the sera were evaluated by enzyme-linked immunosorbent assay (ELISA). Serum concentrations of IFN-γ, IL-4, and IL-12 were evaluated using an ELISA kit (eBioscience, San Diego, Calif.). Briefly, 96 well flat-bottom ELISA plates (NUNC) were coated with capture antibody according to the manufacture's recommendation and incubated overnight at 4° C. The plates were washed with PBS+0.05% Tween 20 (PBS-T), then incubated with manufacturer provided blocking solution for 1 hr at room temperature to block non-specific binding sites. After washing with PBS-T, sera diluted 1:10 was added to the wells and incubated for 2 hrs at room temperature. Plates were then incubated at room temperature for 1 hr with biotintylated detection antibody, washed, incubated with avidin conjugated to horse radish peroxidase (HRP) for 30 min at room temperature, washed, and finally incubated with tetramethylbenzidine substrate solution in the dark for 10 minutes at room temperature. The antibodies, avidin-HRP, and substrate solution were all diluted according to the manufacture's recommendation. Reactions were stopped with 2.0N sulfuric acid and the cytokine concentration in each well was determined by comparing the absorbance at 450 nm in each well to known standards. The levels of Th1- and Th2-type cytokines were determined in two different genetic backgrounds, i.e., in C57BL/6 mice and BALB/c mice. The following compounds were administered: A=compound (A-1 trans-conformer), B=compound (A-2), C=compound (A-3), D=compound (A-4), E=compound (A-5), Z=control (PBS alone), CRONY=α-C-GalCer, KRN=α-GalCer, GCK109 (A-1 trans-conformer), GCK151 (A-1 cis-conformer), GCK152 (A-7). The levels of cytokines were measured at 0, 2, 6, 12, 24, 48, and 72 hours after the compound administration. The levels of Th1-type cytokines IFN-γ and IL-12 are summarized in FIGS. 2A-C and 3A-C, respectively. Table 7 provides IFN-γ/IL-4 and IL-12/IL-4 ratios for various compounds, which can be used as indicators of their ability to selectively stimulate Th1-type immune responses.

IL-12 = IL-12 levels in sera upon i.v. glycolipid administration to C57BL/6 mice (ELISA); set-up: IL-12 levels, test 1 / IL-12 levels, test 2 / IL-12 levels, average / IL-12 levels, Total: unit not given here; conditions: for IL-12/IL-4 (B6): C57BL/6, ratio calculated from Tables 1-6; for IL-12 levels, average / IL-12 levels, test 1 / IL-12 levels, test 2 / IL-12 levels, Total: C57BL/6, serum; for IL-12 levels, Total: total over hours 0-72
Procedure: as §1

IL-4 = IL-4 levels in sera upon i.v. glycolipid administration to BALB/c mice (ELISA); set-up: unit not given here; conditions: for IL-4 level, Total: total over hours 0-72
Procedure: as §1

IFN-γ [2] = experiment: IFN-γ levels in sera upon i.v. glycolipid administration to C57BL/6 mice (ELISA); set-up: IFN-γ levels, test 1 / IFN-γ levels, test 2 / IFN-γ levels, average / IFN-γ levels, Total / IFN-γ (B6): unit not given here; conditions: for IFN-γ/IL-4 (B6): C57BL/6, ratio calculated from Tables 1-6; for IFN-γ levels, average / IFN-γ levels, test 1 / IFN-γ levels, test 2 / IFN-γ levels, Total: C57BL/6, serum; for IFN-γ levels, Total: total over hours 0-72
Procedure: as §1

## CCCCCCCCCCCCCC[C@@H](O)[C@@H](O)[C@H](CC[C@H]1O[C@H](CO)[C@H](O)[C@H](O)[C@H]1O)NC(=O)CCCCCCCCCCCCCCCCCCCOCCCCCC [A-4]
IFN-γ [1]
  IFN-γ/IL-4 (BALB/c): 44
  IFN-γ levels, Total: 22676
IFN-γ [1]; hour 0
  IFN-γ levels, average: 27
  IFN-γ levels, test 1: 27
  IFN-γ levels, test 2: 27
IFN-γ [1]; hour 2
  IFN-γ levels, average: 142.5
  IFN-γ levels, test 1: 140
  IFN-γ levels, test 2: 145
IFN-γ [1]; hour 6
  IFN-γ levels, average: 1742
  IFN-γ levels, test 1: 1778
  IFN-γ levels, test 2: 1706
IFN-γ [1]; hour 12
  IFN-γ levels, average: 6513.5
  IFN-γ levels, test 1: 4988
  IFN-γ levels, test 2: 8039
IFN-γ [1]; hour 24
  IFN-γ levels, average: 14100
  IFN-γ levels, test 1: 14000
  IFN-γ levels, test 2: 14200
IFN-γ [1]; hour 48
  IFN-γ levels, average: 929.5
  IFN-γ levels, test 1: 752
  IFN-γ levels, test 2: 1107
IFN-γ [1]; hour 72
  IFN-γ levels, average: 56.5
  IFN-γ levels, test 1: 47
  IFN-γ levels, test 2: 66
IL-12
  IL-12/IL-4 (B6): 1.3
  IL-12 levels, Total: 1274
IL-12; hour 0
  IL-12 levels, average: 5
  IL-12 levels, test 1: 5
  IL-12 levels, test 2: 5
IL-12; hour 2
  IL-12 levels, average: 458.5
  IL-12 levels, test 1: 490
  IL-12 levels, test 2: 427
IL-12; hour 6
  IL-12 levels, average: 685.5
  IL-12 levels, test 1: 740
  IL-12 levels, test 2: 631
IL-12; hour 12
  IL-12 levels, average: 124
  IL-12 levels, test 1: 18
  IL-12 levels, test 2: 230
IL-12; hour 24
  IL-12 levels, average: 0
  IL-12 levels, test 1: 0
  IL-12 levels, test 2: 0
IL-12; hour 48
  IL-12 levels, average: 0
  IL-12 levels, test 1: 0
  IL-12 levels, test 2: 0
IL-12; hour 72
  IL-12 levels, average: 0
  IL-12 levels, test 1: 0
  IL-12 levels, test 2: 0
IL-4; hour 0
  IL-4 level, average: 27
  IL-4 level, test 1: 27
  IL-4 level, test 2: 27
IL-4; hour 2
  IL-4 level, average: 207
  IL-4 level, test 1: 200
  IL-4 level, test 2: 214
IL-4; hour 6
  IL-4 level, average: 79.5
  IL-4 level, test 1: 85
  IL-4 level, test 2: 74
IL-4; hour 12
  IL-4 level, average: 58
  IL-4 level, test 1: 64
  IL-4 level, test 2: 52
IL-4; hour 24
  IL-4 level, average: 67.5
  IL-4 level, test 1: 50
  IL-4 level, test 2: 85
IL-4; hour 48
  IL-4 level, average: 59
  IL-4 level, test 1: 52
  IL-4 level, test 2: 66
IL-4; hour 72
  IL-4 level, average: 12
  IL-4 level, test 1: 12
  IL-4 level, test 2: 12
IL-4
  IL-4 level, Total: 511
IFN-γ [2]
  IFN-γ/IL-4 (B6): 10
  IFN-γ levels, Total: 10532
IFN-γ [2]; hour 0
  IFN-γ levels, average: 31
  IFN-γ levels, test 1: 31
  IFN-γ levels, test 2: 31
IFN-γ [2]; hour 2
  IFN-γ levels, average: 308.5
  IFN-γ levels, test 1: 255
  IFN-γ levels, test 2: 362
IFN-γ [2]; hour 6
  IFN-γ levels, average: 1329
  IFN-γ levels, test 1: 1381
  IFN-γ levels, test 2: 1277
IFN-γ [2]; hour 12
  IFN-γ levels, average: 2335.5
  IFN-γ levels, test 1: 2466
  IFN-γ levels, test 2: 2205
IFN-γ [2]; hour 24
  IFN-γ levels, average: 5563.5
  IFN-γ levels, test 1: 5291
  IFN-γ levels, test 2: 5836
IFN-γ [2]; hour 48
  IFN-γ levels, average: 742
  IFN-γ levels, test 1: 581
  IFN-γ levels, test 2: 903
IFN-γ [2]; hour 72
  IFN-γ levels, average: 220.5
  IFN-γ levels, test 1: 245
  IFN-γ levels, test 2: 196

## CCCCCCCCCCCCCC[C@@H](O)[C@@H](O)[C@H](CC[C@H]1O[C@H](CO)[C@H](O)[C@H](O)[C@H]1O)NC(=O)CCCCCCCCCCCCCCCCCCCOCCCCC [A-5]
IFN-γ [1]
  IFN-γ/IL-4 (BALB/c): 39
  IFN-γ levels, Total: 14922
IFN-γ [1]; hour 0
  IFN-γ levels, average: 2.5
  IFN-γ levels, test 1: 27
  IFN-γ levels, test 2: 27
IFN-γ [1]; hour 2
  IFN-γ levels, average: 101
  IFN-γ levels, test 1: 118
  IFN-γ levels, test 2: 84
IFN-γ [1]; hour 6
  IFN-γ levels, average: 1665
  IFN-γ levels, test 1: 1650
  IFN-γ levels, test 2: 1680
IFN-γ [1]; hour 12
  IFN-γ levels, average: 3566
  IFN-γ levels, test 1: 4018
  IFN-γ levels, test 2: 3114
IFN-γ [1]; hour 24
  IFN-γ levels, average: 9104.5
  IFN-γ levels, test 1: 8738
  IFN-γ levels, test 2: 9471
IFN-γ [1]; hour 48
  IFN-γ levels, average: 425.5
  IFN-γ levels, test 1: 453
  IFN-γ levels, test 2: 398
IFN-γ [1]; hour 72
  IFN-γ levels, average: 56
  IFN-γ levels, test 1: 54
  IFN-γ levels, test 2: 58
IFN-γ [1]; C57BL/6 and BALB/c mice, 1 μg i.v.
  effect: higher/extended IFN-γ and IL-12 with much lower IL-4 compared to α-GalCer (KRN): particularly pronounced
IL-12
  IL-12/IL-4 (B6): 3.4
  IL-12 levels, Total: 2182
IL-12; hour 0
  IL-12 levels, average: 5
  IL-12 levels, test 1: 5
  IL-12 levels, test 2: 5
IL-12; hour 2
  IL-12 levels, average: 115.5
  IL-12 levels, test 1: 117
  IL-12 levels, test 2: 114
IL-12; hour 6
  IL-12 levels, average: 1346.5
  IL-12 levels, test 1: 1351
  IL-12 levels, test 2: 1342
IL-12; hour 12
  IL-12 levels, average: 518.5
  IL-12 levels, test 1: 535
  IL-12 levels, test 2: 502
IL-12; hour 24
  IL-12 levels, average: 87
  IL-12 levels, test 1: 96
  IL-12 levels, test 2: 78
IL-12; hour 48
  IL-12 levels, average: 58
  IL-12 levels, test 1: 52
  IL-12 levels, test 2: 64
IL-12; hour 72
  IL-12 levels, average: 49.5
  IL-12 levels, test 1: 46
  IL-12 levels, test 2: 53
IL-4; hour 0
  IL-4 level, average: 27
  IL-4 level, test 1: 27
  IL-4 level, test 2: 27
IL-4; hour 2
  IL-4 level, average: 156
  IL-4 level, test 1: 122
  IL-4 level, test 2: 190
IL-4; hour 6
  IL-4 level, average: 67.5
  IL-4 level, test 1: 60
  IL-4 level, test 2: 75
IL-4; hour 12
  IL-4 level, average: 45.5
  IL-4 level, test 1: 48
  IL-4 level, test 2: 43
IL-4; hour 24
  IL-4 level, average: 41
  IL-4 level, test 1: 39
  IL-4 level, test 2: 43
IL-4; hour 48
  IL-4 level, average: 40
  IL-4 level, test 1: 41
  IL-4 level, test 2: 39
IL-4; hour 72
  IL-4 level, average: 3.4
  IL-4 level, test 1: 3.4
  IL-4 level, test 2: 3.4
IL-4
  IL-4 level, Total: 382
IFN-γ [2]
  IFN-γ/IL-4 (B6): 18
  IFN-γ levels, Total: 11775
IFN-γ [2]; hour 0
  IFN-γ levels, average: 31
  IFN-γ levels, test 1: 31
  IFN-γ levels, test 2: 31
IFN-γ [2]; hour 2
  IFN-γ levels, average: 112.5
  IFN-γ levels, test 1: 130
  IFN-γ levels, test 2: 95
IFN-γ [2]; hour 6
  IFN-γ levels, average: 929
  IFN-γ levels, test 1: 930
  IFN-γ levels, test 2: 928
IFN-γ [2]; hour 12
  IFN-γ levels, average: 2108
  IFN-γ levels, test 1: 2215
  IFN-γ levels, test 2: 2001
IFN-γ [2]; hour 24
  IFN-γ levels, average: 8196.5
  IFN-γ levels, test 1: 7680
  IFN-γ levels, test 2: 8713
IFN-γ [2]; hour 48
  IFN-γ levels, average: 295
  IFN-γ levels, test 1: 249
  IFN-γ levels, test 2: 341
IFN-γ [2]; hour 72
  IFN-γ levels, average: 102
  IFN-γ levels, test 1: 101
  IFN-γ levels, test 2: 103
